Some results are limits rather than exact numbers.

For this assay, the target named is human recombinant H-PGDS (Homo sapiens, UniProt O60760). Put plainly: Fluoresecence Intensity h-PGDSTBA Enzyme Assay. The note with it: IC50, 5.0 μM PGH2, 2.5 mM L-Glutathione, 10 min preincubation, 4-parameter fit, highest inhibitor concentration typically 1 μM.
Chain of human recombinant H-PGDS (O60760 whole entry): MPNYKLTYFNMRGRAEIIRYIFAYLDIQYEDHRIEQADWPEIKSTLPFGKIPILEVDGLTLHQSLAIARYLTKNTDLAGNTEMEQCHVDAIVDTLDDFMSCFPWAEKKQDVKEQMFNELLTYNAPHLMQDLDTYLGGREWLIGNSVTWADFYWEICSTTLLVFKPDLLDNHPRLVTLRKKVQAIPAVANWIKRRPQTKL

For orientation: IC50 means the concentration at which inhibition is half-maximal. In the case of `CCOC(=O)N1CCC(NC(=O)c2cnc(-c3cccc(F)c3)nc2)C1` (single isomer, unassigned) [Example 82a, Ethyl 3-(2-(3-fluorophenyl)pyrimidine-5-carboxamido)pyrrolidine-1-carboxylate], the IC50 amounted to 0.00192 µM. Under `Cc1nc(-c2ccccc2)ncc1C(=O)NC1CCN(C)CC1` [Example 4, 4-Methyl-N-(1-methylpiperid-4-yl)-2-phenylpyrimidine-5-carboxamide] stands 0.302 µM. Consider `COC(=O)c1cccc(-c2ncc(C(=O)NC3CCN(CC(F)(F)F)CC3)cn2)c1` [Example 125, Methyl 3-[5-({[1-(2,2,2-trifluoroethyl)piperidin-4-yl]amino}carbonyl)pyrimidin-2-yl]benzoate], for which the IC50 was found to be 0.27 µM. Under `O=C(NC1CN(c2nnnn2-c2ccccc2)C1)c1cnc(-c2cccc(F)c2)nc1` [Example 104, 2-(3-Fluorophenyl)-N-[1-(1-phenyl-1H-tetrazol-5-yl)azetidin-3-yl]pyrimidine-5-carboxamide] stands 0.000706 µM; under `Nc1nc(-c2ccccc2)ncc1C(=O)NC1CCN(Cc2ccccn2)CC1` [Example 18, 4-Amino-2-phenyl-N-[1-(pyridin-2-ylmethyl)piperidin-4-yl]pyrimidine-5-carboxamide], 0.0164 µM. Under `O=C(NC1CCN(C(COc2ccc(F)cc2F)c2ccccc2)CC1)c1cnc(-c2cccc(F)c2)nc1` (stereo not drawn) [Example 47, N-{1-[2-(2,4-Difluorophenoxy)-1-phenylethyl]piperidin-4-yl}-2-(3-fluorophenyl)pyrimidine-5-carboxamide] stands 0.0102 µM. Under `CC(C)N1CCC(NC(=O)c2cnc(-c3ccccc3)nc2N)CC1` [Example 16, 4-Amino-N-(1-isopropylpiperidin-4-yl)-2-phenyl-pyrimidine-5-carboxamide] stands 0.219 µM; under `O=C(NC1CCN(C(COc2cc(F)c(F)c(F)c2)c2ccccc2)CC1)c1cnc(-c2cccc(F)c2)nc1` (stereo not drawn) [Example 50, 2-(3-Fluorophenyl)-N-{1-[1-phenyl-2-(3,4,5-trifluorophenoxy)ethyl]piperidin-4-yl}pyrimidine-5-carboxamide], 0.00955 µM; under `CCCCOCCCN1CCC(NC(=O)c2cnc(-c3cccc(F)c3)nc2)C1=O` (stereo not drawn) [Example 91, N-[1-(3-Butoxypropyl)-2-oxopyrrolidin-3-yl]-2-(3-fluorophenyl)pyrimidine-5-carboxamide], 0.0028 µM.

Turning to `CN1CC[C@@H](NC(=O)c2cnc(-c3cccc(F)c3)nc2)[C@@H](Cc2ccccc2)C1` [Example 72, N-[(3S,4R)-3-Benzyl-1-methylpiperidin-4-yl]-2-(3-fluorophenyl)pyrimidine-5-carboxamide], the IC50 was 0.03 µM. Under `O=C(NC1CCN(Cc2ccccn2)CC1)c1cnc(-c2cccc(CO)c2)nc1` [Example 159, 2-[3-(Hydroxymethyl)phenyl]-N-[1-(pyridin-2-ylmethyl)piperidin-4-yl]pyrimidine-5-carboxamide] stands 2.04 µM; under `O=C(NC1CCN(CC(F)(F)F)CC1)c1cnc(-c2cc(F)ccc2F)nc1` [Example 73, 2-(2,5-Difluorophenyl)-N-[1-(2,2,2-trifluoroethyl)piperidin-4-yl]pyrimidine-5-carboxamide], 0.00184 µM. For `Cc1cc(=O)[nH]c(N2CCC(NC(=O)c3cnc(-c4cccc(F)c4)nc3)CC2)n1` [Example 70, 2-(3-Fluorophenyl)-N-[1-(4-methyl-6-oxo-1,6-dihydropyrimidin-2-yl)piperidin-4-yl]pyrimidine-5-carboxamide] the value was 0.000962 µM; for `Cc1nc(-c2ccccc2)ncc1C(=O)NC1CCN(CC2CCOCC2)CC1` [Example 7, 4-Methyl-2-phenyl-N-[1-(tetrahydro-2H-pyran-4-ylmethyl)piperidin-4-yl] pyrimidine-5-carboxamide], 0.0304 µM; for `Cc1nc(-c2ccccc2)ncc1C(=O)NC1CCN(Cc2ccccc2)CC1` [Example 2, N-(1-Benzylpiperidin-4-yl)-4-methyl-2-phenylpyrimidine-5-carboxamide], 0.0674 µM. For `N#Cc1cc(Cl)ccc1OCC(c1ccccc1)N1CCC(NC(=O)c2cnc(-c3cccc(F)c3)nc2)CC1` (stereo not drawn) [Example 31, N-{1-[2-(4-Cchloro-2-cyanophenoxy)-1-phenylethyl]piperidin-4-yl}-2-(3-fluorophenyl)pyrimidine-5-carboxamide] the value was 0.00768 µM; for `CC(=O)c1cccc(-c2ncc(C(=O)NC3CCN(C(=O)C(C)(C)C)CC3)cn2)c1` [Example 142, 2-(3-Acetylphenyl)-N-[1-(2,2-dimethylpropanoyl)piperidin-4-yl]pyrimidine-5-carboxamide], 0.064 µM; for `O=C(NC1CCN(Cc2ccccc2C(F)(F)F)C1=O)c1cnc(-c2cccc(F)c2)nc1` (stereo not drawn) [Example 84, 2-(3-Fluorophenyl)-N-{2-oxo-1-[2-(trifluoromethyl)benzyl]pyrrolidin-3-yl}pyrimidine-5-carboxamide], 0.000987 µM.

As for `O=C(NC1CCN(Cc2ccccn2)CC1)c1cnc(-c2ccccc2)nc1O` [Example 21, 4-Hydroxy-2-phenyl-N-[1-(pyridin-2-ylmethyl)piperidin-4-yl]pyrimidine-5-carboxamide], the IC50 amounted to 0.992 µM. For `O=C(NC1CCN(CC(F)(F)F)CC1)c1cnc(-c2ccccc2)nc1O` [Example 22, 4-Hydroxy-2-phenyl-N-[1-(2,2,2-trifluoroethyl)piperidin-4-yl] pyrimidine-5-carboxamide] the value was at least 1 µM; for `Cc1nc(N2CCC(NC(=O)c3cnc(-c4cccc(F)c4)nc3)CC2)[nH]c(=O)c1CCO` [Example 60, 2-(3-Fluorophenyl)-N-{1-[5-(2-hydroxyethyl)-4-methyl-6-oxo-1,6-dihydropyrimidin-2-yl]piperidin-4-yl}pyrimidine-5-carboxamide], 0.00102 µM. For `CN1CCc2nc(N3CC[C@@H](NC(=O)c4cnc(-c5cccc(F)c5)nc4)C3)ncc2C1` [Example 78a, 2-(3-Fluorophenyl)-N-[(3R)-1-(6-methyl-5,6,7,8-tetrahydropyrido[4,3-d]pyrimidin-2-yl)pyrrolidin-3-yl]pyrimidine-5-carboxamide] the value was 0.013 µM. For `CCC(CC)N1CCC(NC(=O)c2cnc(-c3cccc(F)c3)nc2)CC1` [Example 68, N-[1-(1-Ethylpropyl)piperidin-4-yl]-2-(3-fluorophenyl)pyrimidine-5-carboxamide] the value was 0.000373 µM; for `O=C(NC1CCN(CC2CCCCC2)CC1)c1cnc(-c2cccc(F)c2)nc1` [Example 52, N-[1-(Cyclohexylmethyl)piperidin-4-yl]-2-(3-fluorophenyl)pyrimidine-5-carboxamide], 0.000457 µM. `O=C(NC1CCN(CC2CC2)CC1)c1cnc(-c2cccc(F)c2)nc1` [Example 35, N-[1-(Cyclopropylmethyl)piperidin-4-yl]-2-(3-fluorophenyl)pyrimidine-5-carboxamide]: the IC50 is 0.00062 µM. For `CCOC(=O)N1CCC(NC(=O)c2cnc(-c3ccccc3)nc2C)CC1` [Example 6, Ethyl 4-{[(4-methyl-2-phenylpyrimidin-5-yl)carbonyl]amino)} piperidine-1-carboxylate] the value was 0.00654 µM; for `O=C(NC1CCN(C(COc2ccc(F)c(F)c2F)c2ccccc2)CC1)c1cnc(-c2cccc(F)c2)nc1` (stereo not drawn) [Example 55, 2-(3-Fluorophenyl)-N-{1-[1-phenyl-2-(2,3,4-trifluorophenoxy)ethyl]piperidin-4-yl}pyrimidine-5-carboxamide], 0.0454 µM. For `O=C(NC1CCN(C(COc2ccc(F)cc2)c2ccccc2)CC1)c1cnc(-c2cccc(F)c2)nc1` (stereo not drawn) [Example 44, N-{1-[2-(4-Fluorophenoxy)-1-phenylethyl]piperidin-4-yl}-2-(3-fluorophenyl)pyrimidine-5-carboxamide] the value was 0.0162 µM. Under `N#Cc1ccc(OCC(c2ccccc2)N2CCC(NC(=O)c3cnc(-c4cccc(F)c4)nc3)CC2)cc1F` (stereo not drawn) [Example 28, N-{1-[2-(4-Cyano-3-fluorophenoxy)-1-phenylethyl]piperidin-4-yl}-2-(3-fluorophenyl)pyrimidine-5-carboxamide] stands 0.00445 µM. On to `Cc1cc(OCC(c2ccccc2)N2CCC(NC(=O)c3cnc(-c4cccc(F)c4)nc3)CC2)ccc1F` (stereo not drawn) [Example 45, N-{1-[2-(4-Fluoro-3-methylphenoxy)-1-phenylethyl]piperidin-4-yl}-2-(3-fluorophenyl)pyrimidine-5-carboxamide], for which the IC50 worked out at 0.0142 µM.

As to `Cc1ccc(OCC(c2ccccc2)N2CCC(NC(=O)c3cnc(-c4cccc(F)c4)nc3)CC2)cc1C` (stereo not drawn) [Example 56, N-{1-[2-(3,4-Dimethylphenoxy)-1-phenylethyl]piperidin-4-yl}-2-(3-fluorophenyl)pyrimidine-5-carboxamide], the IC50 came out at 0.0142 µM. As for `O=C(NC1CCN(C(COc2c(F)cccc2Cl)c2ccccc2)CC1)c1cnc(-c2cccc(F)c2)nc1` (stereo not drawn) [Example 29, N-{1-[2-(2-Chloro-6-fluorophenoxy)-1-phenylethyl]piperidin-4-yl}-2-(3-fluorophenyl)pyrimidine-5-carboxamide], the IC50 was found to be 0.0114 µM. Under `O=C(NC1CCN(Cc2ccccn2)CC1)c1cnc(-c2ccccc2)nc1` [Example 8, 2-Phenyl-N-[1-(pyridin-2-ylmethyl)piperidin-4-yl] pyrimidine-5-carboxamide] stands 0.000461 µM; under `CN1CCc2nc(N3CCC(NC(=O)c4cnc(-c5cccc(F)c5)nc4)C3)ncc2C1` (stereo not drawn) [Example 78, 2-(3-Fluorophenyl)-N-[1-(6-methyl-5,6,7,8-tetrahydropyrido[4,3-d]pyrimidin-2-yl)pyrrolidin-3-yl]pyrimidine-5-carboxamide], 0.000379 µM; under `O=C(NC1CCN(c2ncc3c(n2)CCOC3)C1)c1cnc(-c2cccc(F)c2)nc1` (single isomer, unassigned) [Example 81b, N-(1-(7,8-Dihydro-5H-pyrano[4,3-d]pyrimidin-2-yl)pyrrolidin-3-yl)-2-(3-fluorophenyl)pyrimidine-5-carboxamide], 0.00046 µM. For `O=C(NC1CCN(CC(F)(F)F)CC1)c1cnc(-c2ccccc2CO)nc1` [Example 113, 2-[2-(Hydroxymethyl)phenyl]-N-[1-(2,2,2-trifluoroethyl)piperidin-4-yl]pyrimidine-5-carboxamide] the value was 1.01 µM.

The values above are taken from patent US8067589B2, “Heterocyclic compounds useful in treating diseases and conditions” (Pfizer Inc, priority 2007, dated 2011).
